Source: PubChem BioAssay AID1963832 (Molecular Pharmacology Branch, DTP, NCI, 2024)

System: 885724-159-R-J1-PDC complex spheroid viability
Experiment: Anticancer human tumor 885724-159-R-J1-PDC patient-derived pancreatic adenocarcinoma cell line growth inhibition [POLQ]
Details: for IC50: curve of first compound; for viability, T/C: stronger effect = lower value; active = viability on the fitted dose curve at most 10% of control; inactive = the rest
Summary of the method: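 Three-cell-type spheroids modelling solid tumor plus stroma served as the readout system; POL inhibitors were tested individually and in combination, concentration ranges set by clinical Cmax where known.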

[1] = second compound 0.0316 µM, first compound 0.0316 µM
[2] = second compound 0.0316 µM, first compound 0.1 µM
[3] = second compound 0.0316 µM, first compound 0.316 µM
[4] = second compound 0.0316 µM, first compound 1 µM
[5] = second compound 0.0316 µM, first compound 3.16 µM
[6] = second compound 0.0316 µM, first compound 10 µM
[7] = second compound 0.1 µM, first compound 0.0316 µM
[8] = second compound 0.1 µM, first compound 0.1 µM
[9] = second compound 0.1 µM, first compound 0.316 µM
[10] = second compound 0.1 µM, first compound 1 µM
[11] = second compound 0.1 µM, first compound 3.16 µM
[12] = second compound 0.1 µM, first compound 10 µM
[13] = second compound 0.316 µM, first compound 0.0316 µM
[14] = second compound 0.316 µM, first compound 0.1 µM
[15] = second compound 0.316 µM, first compound 0.316 µM
[16] = second compound 0.316 µM, first compound 1 µM
[17] = second compound 0.316 µM, first compound 3.16 µM
[18] = second compound 0.316 µM, first compound 10 µM
[19] = second compound 1 µM, first compound 0.0316 µM
[20] = second compound 1 µM, first compound 0.1 µM
[21] = second compound 1 µM, first compound 0.316 µM
[22] = second compound 1 µM, first compound 1 µM
[23] = second compound 1 µM, first compound 3.16 µM
[24] = second compound 1 µM, first compound 10 µM
[25] = second compound 3.16 µM, first compound 0.0316 µM
[26] = second compound 3.16 µM, first compound 0.1 µM
[27] = second compound 3.16 µM, first compound 0.316 µM
[28] = second compound 3.16 µM, first compound 1 µM
[29] = second compound 3.16 µM, first compound 3.16 µM
[30] = second compound 3.16 µM, first compound 10 µM
[31] = second compound 10 µM, first compound 0.0316 µM
[32] = second compound 10 µM, first compound 0.1 µM
[33] = second compound 10 µM, first compound 0.316 µM
[34] = second compound 10 µM, first compound 1 µM
[35] = second compound 10 µM, first compound 3.16 µM
[36] = second compound 10 µM, first compound 10 µM
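Also: spheroids exposed to compounds for 7 days.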

CC1COCCN1c1cc(-c2ccnn2C)c2ccnc(-c3ccn[nH]3)c2n1 (stereo not drawn) + Cc1cccc(N(C)C(=O)C2C(O)CCN2c2nc(C)cc(C(F)(F)F)c2C#N)c1
0.35 µM: IC50 (second compound 0.0316 µM)
inactive: viability, T/C [1] 85.6% | viability, T/C [2] 61.2% | viability, T/C [3] 52.3% | viability, T/C [4] 42.6% | viability, T/C [5] 45.5% | viability, T/C [6] 39% | viability, T/C [7] 87% | viability, T/C [8] 66.2% | viability, T/C [9] 54.2% | viability, T/C [10] 47.5% | viability, T/C [11] 44.7% | viability, T/C [12] 36.1% | viability, T/C [13] 89.3% | viability, T/C [14] 61.5% | viability, T/C [15] 51.5% | viability, T/C [16] 47.2% | viability, T/C [17] 40.6% | viability, T/C [18] 41.4% | viability, T/C [19] 82.9% | viability, T/C [20] 65.1% | viability, T/C [21] 50.2% | viability, T/C [22] 47.4% | viability, T/C [23] 41.9% | viability, T/C [24] 38.3% | viability, T/C [25] 77.8% | viability, T/C [26] 63.2% | viability, T/C [27] 51.9% | viability, T/C [28] 47% | viability, T/C [29] 46.5% | viability, T/C [30] 37.8% | viability, T/C [31] 86% | viability, T/C [32] 58.5% | viability, T/C [33] 50.4% | viability, T/C [34] 53.3% | viability, T/C [35] 49.6% | viability, T/C [36] 40.2%
0.441 µM: IC50 (second compound 10 µM)
0.631 µM: IC50 (second compound 0.1 µM)
0.576 µM: IC50 (second compound 3.16 µM)
0.467 µM: IC50 (second compound 1 µM)
0.364 µM: IC50 (second compound 0.316 µM)

CC1COCCN1c1cc(C2(S(C)(=N)=O)CC2)nc(-c2ccnc3[nH]ccc23)n1 (stereo not drawn) + Cc1cccc(N(C)C(=O)C2C(O)CCN2c2nc(C)cc(C(F)(F)F)c2C#N)c1
9.04 µM: IC50 (second compound 0.316 µM)
5.33 µM: IC50 (second compound 1 µM)
> 10 µM: IC50 (second compound 0.0316 µM) | IC50 (second compound 0.1 µM) | IC50 (second compound 3.16 µM) | IC50 (second compound 10 µM)
inactive: viability, T/C [1] 105% | viability, T/C [2] 97.3% | viability, T/C [3] 89% | viability, T/C [4] 72% | viability, T/C [5] 58% | viability, T/C [6] 51.7% | viability, T/C [7] 103% | viability, T/C [8] 94.1% | viability, T/C [9] 97.9% | viability, T/C [10] 65.4% | viability, T/C [11] 55.2% | viability, T/C [12] 53.8% | viability, T/C [13] 108% | viability, T/C [14] 102% | viability, T/C [15] 92.5% | viability, T/C [16] 72.9% | viability, T/C [17] 55.9% | viability, T/C [18] 49.7% | viability, T/C [19] 109% | viability, T/C [20] 93.6% | viability, T/C [21] 97% | viability, T/C [22] 71.8% | viability, T/C [23] 52.3% | viability, T/C [24] 47.2% | viability, T/C [25] 98.5% | viability, T/C [26] 95.6% | viability, T/C [27] 92.8% | viability, T/C [28] 73.8% | viability, T/C [29] 51.7% | viability, T/C [30] 51.3% | viability, T/C [31] 92.2% | viability, T/C [32] 97.2% | viability, T/C [33] 91.5% | viability, T/C [34] 68.2% | viability, T/C [35] 56.4% | viability, T/C [36] 50.4%

COc1ccc([C@@H](O)c2cc(-c3ncnc4cc(N5CCOCC5)ccc34)c(F)cc2Cl)nn1 + Cc1cccc(N(C)C(=O)C2C(O)CCN2c2nc(C)cc(C(F)(F)F)c2C#N)c1
4.6 µM: IC50 (second compound 10 µM)
4.02 µM: IC50 (second compound 0.1 µM)
4.68 µM: IC50 (second compound 0.316 µM)
inactive: viability, T/C [1] 112% | viability, T/C [2] 90.2% | viability, T/C [3] 88.6% | viability, T/C [4] 70.1% | viability, T/C [5] 60.5% | viability, T/C [6] 35.6% | viability, T/C [7] 93.7% | viability, T/C [8] 91.6% | viability, T/C [9] 81.5% | viability, T/C [10] 64.7% | viability, T/C [11] 56.7% | viability, T/C [12] 35.2% | viability, T/C [13] 104% | viability, T/C [14] 84.8% | viability, T/C [15] 81.1% | viability, T/C [16] 81.9% | viability, T/C [17] 57.2% | viability, T/C [18] 33.7% | viability, T/C [19] 103% | viability, T/C [20] 93.2% | viability, T/C [21] 89% | viability, T/C [22] 68% | viability, T/C [23] 55.3% | viability, T/C [24] 34.5% | viability, T/C [25] 100% | viability, T/C [26] 92.5% | viability, T/C [27] 85.1% | viability, T/C [28] 78.6% | viability, T/C [29] 55.2% | viability, T/C [30] 33.4% | viability, T/C [31] 101% | viability, T/C [32] 90.3% | viability, T/C [33] 85.1% | viability, T/C [34] 77% | viability, T/C [35] 55.9% | viability, T/C [36] 34.9%
3.96 µM: IC50 (second compound 1 µM)
4.44 µM: IC50 (second compound 3.16 µM)
4.63 µM: IC50 (second compound 0.0316 µM)

Cn1ncnc1[C@H]1c2n[nH]c(=O)c3cc(F)cc(c23)N[C@@H]1c1ccc(F)cc1 + Cc1cccc(N(C)C(=O)C2C(O)CCN2c2nc(C)cc(C(F)(F)F)c2C#N)c1
inactive: viability, T/C (second compound 0.0316 µM, first compound 0.000316 µM) 97.2% | viability, T/C (second compound 0.0316 µM, first compound 0.001 µM) 86.9% | viability, T/C (second compound 0.0316 µM, first compound 0.00316 µM) 96.1% | viability, T/C (second compound 0.0316 µM, first compound 0.01 µM) 86.3% | viability, T/C [1] 93.6% | viability, T/C [2] 87.5% | viability, T/C (second compound 0.1 µM, first compound 0.000316 µM) 96.9% | viability, T/C (second compound 0.1 µM, first compound 0.001 µM) 95% | viability, T/C (second compound 0.1 µM, first compound 0.00316 µM) 92.9% | viability, T/C (second compound 0.1 µM, first compound 0.01 µM) 91.7% | viability, T/C [7] 99.9% | viability, T/C [8] 87.8% | viability, T/C (second compound 0.316 µM, first compound 0.000316 µM) 112% | viability, T/C (second compound 0.316 µM, first compound 0.001 µM) 97.1% | viability, T/C (second compound 0.316 µM, first compound 0.00316 µM) 93.2% | viability, T/C (second compound 0.316 µM, first compound 0.01 µM) 93.5% | viability, T/C [13] 100% | viability, T/C [14] 86.4% | viability, T/C (second compound 1 µM, first compound 0.000316 µM) 98.5% | viability, T/C (second compound 1 µM, first compound 0.001 µM) 101% | viability, T/C (second compound 1 µM, first compound 0.00316 µM) 89.2% | viability, T/C (second compound 1 µM, first compound 0.01 µM) 84.5% | viability, T/C [19] 92.9% | viability, T/C [20] 88.5% | viability, T/C (second compound 3.16 µM, first compound 0.000316 µM) 98.3% | viability, T/C (second compound 3.16 µM, first compound 0.001 µM) 101% | viability, T/C (second compound 3.16 µM, first compound 0.00316 µM) 86.4% | viability, T/C (second compound 3.16 µM, first compound 0.01 µM) 89.6% | viability, T/C [25] 88.6% | viability, T/C [26] 84.7% | viability, T/C (second compound 10 µM, first compound 0.000316 µM) 93.7% | viability, T/C (second compound 10 µM, first compound 0.001 µM) 95.9% | viability, T/C (second compound 10 µM, first compound 0.00316 µM) 98.1% | viability, T/C (second compound 10 µM, first compound 0.01 µM) 94.4% | viability, T/C [31] 94.1% | viability, T/C [32] 80%
> 0.1 µM: IC50 (second compound 0.0316 µM) | IC50 (second compound 0.1 µM) | IC50 (second compound 0.316 µM) | IC50 (second compound 1 µM) | IC50 (second compound 3.16 µM) | IC50 (second compound 10 µM)
